This is an account of results in patent US11312712B2, “Azabenzimidazoles and their use as AMPA receptor modulators” (Janssen Pharmaceutica NV, priority 2015, dated 2022).

GluA1o-γ8 (GRIA1o-CACNG8 fusion construct), sequence (P42261 other isoform, or with tags, fused parts or gaps): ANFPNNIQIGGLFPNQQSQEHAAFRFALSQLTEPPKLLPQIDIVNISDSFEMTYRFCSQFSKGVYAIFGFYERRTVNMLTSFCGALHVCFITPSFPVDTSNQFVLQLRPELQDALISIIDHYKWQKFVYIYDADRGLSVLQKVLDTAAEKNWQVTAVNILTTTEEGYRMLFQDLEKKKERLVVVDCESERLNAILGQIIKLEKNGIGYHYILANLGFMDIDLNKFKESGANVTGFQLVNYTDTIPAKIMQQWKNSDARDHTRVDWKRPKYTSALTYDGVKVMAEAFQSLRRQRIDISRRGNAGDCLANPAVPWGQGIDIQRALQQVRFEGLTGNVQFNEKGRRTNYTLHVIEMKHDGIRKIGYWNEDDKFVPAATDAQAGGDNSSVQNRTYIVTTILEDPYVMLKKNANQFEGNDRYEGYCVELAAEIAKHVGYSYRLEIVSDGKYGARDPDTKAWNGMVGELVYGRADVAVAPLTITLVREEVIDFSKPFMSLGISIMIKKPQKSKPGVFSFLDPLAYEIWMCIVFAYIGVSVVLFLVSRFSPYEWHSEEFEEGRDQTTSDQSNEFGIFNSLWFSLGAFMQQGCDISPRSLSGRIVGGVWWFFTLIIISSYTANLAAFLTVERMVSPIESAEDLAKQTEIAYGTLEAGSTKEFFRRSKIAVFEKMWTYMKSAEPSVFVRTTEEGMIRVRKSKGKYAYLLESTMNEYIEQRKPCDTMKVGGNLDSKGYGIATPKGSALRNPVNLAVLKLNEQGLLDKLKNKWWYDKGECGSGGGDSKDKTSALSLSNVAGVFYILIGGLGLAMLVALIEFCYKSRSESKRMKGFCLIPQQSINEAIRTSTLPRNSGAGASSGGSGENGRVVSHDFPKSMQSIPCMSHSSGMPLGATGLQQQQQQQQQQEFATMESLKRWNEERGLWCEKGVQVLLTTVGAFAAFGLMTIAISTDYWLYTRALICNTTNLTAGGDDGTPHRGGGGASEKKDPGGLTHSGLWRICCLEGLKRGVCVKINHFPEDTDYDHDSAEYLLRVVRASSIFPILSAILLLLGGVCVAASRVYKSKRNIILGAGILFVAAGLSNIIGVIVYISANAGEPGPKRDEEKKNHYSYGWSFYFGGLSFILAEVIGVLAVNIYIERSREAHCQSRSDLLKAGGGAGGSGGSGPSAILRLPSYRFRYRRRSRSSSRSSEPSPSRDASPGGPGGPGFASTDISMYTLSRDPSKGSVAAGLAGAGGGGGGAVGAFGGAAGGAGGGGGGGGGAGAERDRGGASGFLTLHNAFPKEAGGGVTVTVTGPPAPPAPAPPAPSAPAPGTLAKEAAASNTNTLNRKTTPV

The assay deals with GluA1o-γ8 (GRIA1o-CACNG8 fusion construct) (Homo sapiens (Human), UniProt P42261+Q8WXS5). Kind of assay: Calcium flux assay (FLIPR), inhibition of TARP γ8 dependent AMPA receptor activity. The note with it: GluA1o-γ8 (GRIA1o-CACNG8 fusion) in HEK293 cells, calcium flux after 15 μM glutamate. The format is cell-based. The method, boiled down:
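HEK293 cells stably expressing a 1:1 GRIA1o–CACNG8 fusion were loaded with Calcium-5/6 dye plus compound in pH 7.4 HEPES-buffered saline. FLIPR calcium flux after 15 μM glutamate was normalized to untreated and 10 μM CP465022 controls, and a four-parameter logistic fit gave pIC50.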
As for `Cc1cc(-c2nc3ccc(C(F)(F)F)nc3n2-c2ccc3[nH]ncc3c2)ccc1F` [Example 121, 2-(4-Fluoro-3-methyl-phenyl)-3-(1H-indazol-5-yl)-5-(trifluoromethyl)imidazo[4,5-b]pyridine], the IC50 is 0.501 nM. As to `Cc1cccc(-c2nc3ccc(C(F)(F)F)nc3n2-c2ccc3[nH]ncc3c2)c1` [Example 122, 3-(1H-Indazol-5-yl)-2-(m-tolyl)-5-(trifluoromethyl)imidazo[4,5-b]pyridine], the IC50 is 0.316 nM. Regarding `Cc1ccc(-c2nc3ccc(C(F)(F)F)nc3n2-c2ccc3[nH]ncc3c2)cc1` [Example 123, 3-(1H-Indazol-5-yl)-2-(p-tolyl)-5-(trifluoromethyl)imidazo[4,5-b]pyridine], the IC50 is 3.98 nM.

With `FC(F)(F)c1ccc2nc(-c3ccncc3)n(-c3ccc4[nH]ncc4c3)c2n1` [Example 124, 3-(1H-Indazol-5-yl)-2-(4-pyridyl)-5-(trifluoromethyl)imidazo[4,5-b]pyridine], the IC50 was 12.6 nM. In the case of `FC(F)(F)c1nc2ccc(C3CC3)nc2n1-c1ccc2[nH]ncc2c1` [Example 125, 5-Cyclopropyl-3-(1H-indazol-5-yl)-2-(trifluoromethyl)imidazo[4,5-b]pyridine] it was 0.794 nM; in that of `CN(C)C(=O)c1nc2ccc(C(F)(F)F)nc2n1-c1ccc2[nH]ncc2c1` [Example 126, 3-(1H-Indazol-5-yl)-N,N-dimethyl-5-(trifluoromethyl)imidazo[4,5-b]pyridine-2-carboxamide], 794 nM. Under `CNC(=O)c1nc2ccc(C(F)(F)F)nc2n1-c1ccc2[nH]ncc2c1` [Example 127, 3-(1H-Indazol-5-yl)-N-methyl-5-(trifluoromethyl)imidazo[4,5-b]pyridine-2-carboxamide] stands 794 nM; under `O=C(NC1CC1)c1nc2ccc(C(F)(F)F)nc2n1-c1ccc2[nH]ncc2c1` [Example 128, N-Cyclopropyl-3-(1H-indazol-5-yl)-5-(trifluoromethyl)imidazo[4,5-b]pyridine-2-carboxamide], 501 nM. In the case of `COc1nc2ccc(C(F)(F)F)nc2n1-c1ccc2[nH]ncc2c1` [Example 129, 3-(1H-Indazol-5-yl)-2-methoxy-5-(trifluoromethyl)imidazo[4,5-b]pyridine] it was 15.8 nM; in that of `CCNc1nc2ccc(C(F)(F)F)nc2n1-c1ccc2[nH]ncc2c1` [Example 130, N-Ethyl-3-(1H-indazol-5-yl)-5-(trifluoromethyl)imidazo[4,5-b]pyridin-2-amine], 100 nM; in that of `FC(F)(F)c1ccc2nc(NC3CCCCC3)n(-c3ccc4[nH]ncc4c3)c2n1` [Example 131, N-Cyclohexyl-3-(1H-indazol-5-yl)-5-(trifluoromethyl)imidazo[4,5-b]pyridin-2-amine], 158 nM.

Take `O=c1[nH]c2ccc(-n3c(C4CCC4)nc4ccc(C(F)(F)F)nc43)cc2s1` [Example 132, 6-[2-Cyclobutyl-5-(trifluoromethyl)imidazo[4,5-b]pyridin-3-yl]-3H-1,3-benzothiazol-2-one]: the concentration for half-maximal inhibition (IC50) is 0.0631 nM. Consider `Cc1cc(N2CCOCC2)c2nc(C3CCC3)n(-c3ccc4[nH]c(=O)sc4c3)c2n1` [Example 133, 6-(2-Cyclobutyl-5-methyl-7-morpholino-imidazo[4,5-b]pyridin-3-yl)-3H-1,3-benzothiazol-2-one], for which the IC50 is 1 nM.

As for `O=c1[nH]c2ccc(-n3c(C(F)(F)F)nc4ccc(C(F)(F)F)nc43)cc2s1` [Example 134, 6-[2,5-Bis(trifluoromethyl)imidazo[4,5-b]pyridin-3-yl]-3H-1,3-benzothiazol-2-one], the IC50 was 0.0794 nM.

Take `Cc1ccnc2c1nc(C1CC1)n2-c1ccc2[nH]c(=O)sc2c1` [Example 135, 6-(2-Cyclopropyl-7-methyl-imidazo[4,5-b]pyridin-3-yl)-3H-1,3-benzothiazol-2-one]: the IC50 was 79.4 nM. Under `Cc1cc(N2CCOCC2)c2nc(C3CC3)n(-c3ccc4[nH]c(=O)sc4c3)c2n1` [Example 136, 6-(2-Cyclopropyl-5-methyl-7-morpholino-imidazo[4,5-b]pyridin-3-yl)-3H-1,3-benzothiazol-2-one] stands 5.01 nM. In the case of `Cc1cc(Cl)nc2c1nc(C1CCC1)n2-c1ccc2[nH]ncc2c1` [Example 137, 5-Chloro-2-cyclobutyl-3-(1H-indazol-5-yl)-7-methyl-imidazo[4,5-b]pyridine] it was 0.501 nM; in that of `FC(F)(F)c1ccc2nc(C3CCC3)n(-c3cc(Br)c4[nH]ncc4c3)c2n1` [Example 138, 3-(7-Bromo-1H-indazol-5-yl)-2-cyclobutyl-5-(trifluoromethyl)imidazo[4,5-b]pyridine], 0.02 nM. With `Cc1ccc2nc(C(F)(F)F)n(-c3ccc4c(c3)CC(=O)N4)c2n1` [Example 139, 5-[5-Methyl-2-(trifluoromethyl)imidazo[4,5-b]pyridin-3-yl]indolin-2-one], the IC50 was 39.8 nM. Take `O=C1Cc2cc(-n3c(C4CC4)nc4ccc(C(F)F)nc43)ccc2N1` [Example 140, 5-[2-Cyclopropyl-5-(difluoromethyl)imidazo[4,5-b]pyridin-3-yl]indolin-2-one]: the IC50 is 2.51 nM.

As for `CC(C)c1nc2ccc(C(F)F)nc2n1-c1ccc2c(c1)CC(=O)N2` [Example 141, 5-[5-(Difluoromethyl)-2-isopropyl-imidazo[4,5-b]pyridin-3-yl]indolin-2-one], the IC50 is 1.26 nM. Consider `Cc1ccc2nc(C(F)(F)F)n(-c3ccc4[nH]c(=O)sc4c3)c2n1` [Example 142, 6-[5-Methyl-2-(trifluoromethyl)imidazo[4,5-b]pyridin-3-yl]-3H-1,3-benzothiazol-2-one], for which the IC50 was 1.58 nM.

In the case of `Cc1ccc2nc(C3CC3)n(-c3ccc4[nH]c(=O)sc4c3)c2n1` [Example 143, 6-(2-Cyclopropyl-5-methyl-imidazo[4,5-b]pyridin-3-yl)-3H-1,3-benzothiazol-2-one], the IC50 is 1 nM. In the case of `Cc1ccc2nc(C(C)C)n(-c3ccc4[nH]c(=O)sc4c3)c2n1` [Example 144, 6-(2-Isopropyl-5-methyl-imidazo[4,5-b]pyridin-3-yl)-3H-1,3-benzothiazol-2-one] it was 1.58 nM; in that of `Cc1ccc2nc(C3CCC3)n(-c3ccc4[nH]c(=O)sc4c3)c2n1` [Example 145, 6-(2-Cyclobutyl-5-methyl-imidazo[4,5-b]pyridin-3-yl)-3H-1,3-benzothiazol-2-one], 0.251 nM. Under `Cc1ccc2nc(C(C)(F)F)n(-c3ccc4c(c3)CC(=O)N4)c2n1` [Example 146, 5-[2-(1,1-Difluoroethyl)-5-methyl-imidazo[4,5-b]pyridin-3-yl]indolin-2-one] stands 39.8 nM; under `Cc1ccc2nc(C3CC3)n(-c3ccc4[nH]ncc4c3)c2n1` [Example 147, 2-Cyclopropyl-3-(1H-indazol-5-yl)-5-methyl-imidazo[4,5-b]pyridine], 10 nM; under `Cc1ccc2nc(C(C)C)n(-c3ccc4[nH]ncc4c3)c2n1` [Example 148, 3-(1H-Indazol-5-yl)-2-isopropyl-5-methyl-imidazo[4,5-b]pyridine], 7.94 nM. Take `Cc1ccc2nc(C3CCC3)n(-c3ccc4[nH]ncc4c3)c2n1` [Example 149, 2-Cyclobutyl-3-(1H-indazol-5-yl)-5-methyl-imidazo[4,5-b]pyridine]: the IC50 was 0.794 nM. On to `Cc1ccc2nc(C(C)(F)F)n(-c3ccc4[nH]c(=O)sc4c3)c2n1` [Example 150, 6-[2-(1,1-Difluoroethyl)-5-methyl-imidazo[4,5-b]pyridin-3-yl]-3H-1,3-benzothiazol-2-one], for which the IC50 is 1.58 nM. With `Cc1ccc2nc(C(F)(F)F)n(-c3ccc4[nH]ncc4c3)c2n1` [Example 151, 3-(1H-Indazol-5-yl)-5-methyl-2-(trifluoromethyl)imidazo[4,5-b]pyridine], the IC50 is 12.6 nM. In the case of `Cc1ccc2nc(C(C)(F)F)n(-c3ccc4[nH]ncc4c3)c2n1` [Example 152, 2-(1,1-Difluoroethyl)-3-(1H-indazol-5-yl)-5-methyl-imidazo[4,5-b]pyridine] it was 39.8 nM; in that of `O=C1Cc2cc(-n3c(C(F)(F)F)nc4ccc(C(F)F)nc43)ccc2N1` [Example 153, 5-[5-(Difluoromethyl)-2-(trifluoromethyl)imidazo[4,5-b]pyridin-3-yl]indolin-2-one], 2.51 nM.

Regarding `CC(F)(F)c1nc2ccc(C(F)F)nc2n1-c1ccc2c(c1)CC(=O)N2` [Example 154, 5-[2-(1-Difluoroethyl)-5-(difluoromethyl)imidazo[4,5-b]pyridin-3-yl]indolin-2-one], the 50% inhibitory concentration (IC50) is 5.01 nM.

Regarding `CSc1ccc2nc(-c3ccc(F)cc3)n(-c3ccc4[nH]ccc4c3)c2n1` [Example 155, 2-(4-Fluorophenyl)-3-(1H-indol-5-yl)-5-methylsulfanyl-imidazo[4,5-b]pyridine], the IC50 is 39.8 nM. Regarding `Oc1ccc2nc(-c3ccccc3)n(-c3ccc4[nH]ncc4c3)c2n1` [Example 156, 3-(1H-Indazol-5-yl)-2-phenyl-imidazo[4,5-b]pyridin-5-ol], the half-inhibitory concentration (IC50) was 25.1 nM. Turning to `COc1ccc2nc(C3CC3)n(-c3ccc4[nH]ncc4c3)c2n1` [Example 157, 2-Cyclopropyl-3-(1H-indazol-5-yl)-5-methoxy-imidazo[4,5-b]pyridine], the IC50 is 12.6 nM. `CCc1nc2ccc(C(F)(F)F)nc2n1-c1ccc2[nH]c(=O)oc2c1` [Example 158, 6-[2-Ethyl-5-(trifluoromethyl)imidazo[4,5-b]pyridin-3-yl]-3H-1,3-benzoxazol-2-one]: the IC50 was 31.6 nM.

With `CC(C)c1nc2ccc(C(F)(F)F)nc2n1-c1ccc2[nH]c(=O)oc2c1` [Example 159, 6-[2-Isopropyl-5-(trifluoromethyl)imidazo[4,5-b]pyridin-3-yl]-3H-1,3-benzoxazol-2-one], the IC50 was 15.8 nM.

For orientation: IC50 means the midpoint of a concentration-inhibition curve.
